Laboratory results taken from ChEMBL document CHEMBL1142106, “Resin glycosides from the roots of Ipomoea tyrianthina and their biological activity” (2007).
The source made the active and inactive calls. The calls are words filed in the database; no cut-off is given here.

How the values were obtained:
Mus musculus [1] = assay: Anxiolytic activity of ICR mouse assessed as increase in time spent in open arms at 1.0 mg/kg, ip by EPM test relative to control; format: functional, organism-based; design: dose 1 mg/kg
Mus musculus [2] = assay: Anticonvulsant effect in ICR mouse assessed as mortality protection against pentylenetetrazole-induced seizures at 1.0 mg/kg, ip relative to control; format: functional, organism-based; design: dose 1 mg/kg
Ileum [3] = assay: Relaxation of spontaneous contractions of isolated rat ileum at 250 ug/mL relative to control; format: functional
Ileum [4] = assay: Relaxation of spontaneous contractions of isolated rat ileum relative to control; format: functional, tissue-based
Mus musculus [5] = assay: Anxiolytic activity of ICR mouse at 10 mg/kg, ip by EPM test relative to control; format: functional, organism-based; design: dose 10 mg/kg
Mus musculus [6] = assay: Antidepressant activity in ICR mouse assessed as diminution of immobility time at 10 mg/kg, ip by forced swimming test relative to control; format: functional, organism-based; design: dose 10 mg/kg
Mus musculus [7] = assay: Anticonvulsant effect in ICR mouse assessed as mortality protection against pentylenetetrazole-induced seizures at 40 mg/kg, ip relative to control; format: functional; conditions: route intraperitoneal
Mus musculus [8] = assay: Anticonvulsant effect in ICR mouse assessed as mortality protection against pentylenetetrazole-induced seizures at 10 mg/kg, ip relative to control; format: functional; conditions: route intraperitoneal

SMILES	Activity (Mus musculus [1])	Activity (Mus musculus [2])	Emax at 250 µg/mL (Ileum [3])	Activity (Ileum [4])	Activity (Mus musculus [5])	Activity (Mus musculus [6])	Activity (Mus musculus [7])	Activity (Mus musculus [8])
CN1C(=O)CN=C(c2ccccc2)c2cc(Cl)ccc21	Active	Active						
CCCCCC1CCCCCCCCCC(=O)O[C@@H]2[C@@H](O[C@@H]3O[C@H](C)[C@@H](OC(=O)C(C)CC)[C@H](O)[C@H]3O)[C@H](C)O[C@@H](O[C@H]3[C@H](O[C@H]4[C@H](O1)O[C@H](C)[C@@H](O)[C@@H]4O)O[C@H](CO)[C@@H](O)[C@@H]3O)[C@@H]2OC(=O)CCC (some centres undefined) [TYRIANTHIN 6]			59.1%	Active	inactive	Active	88%	33.33%
C/C=C(\C)C(=O)O[C@H]1[C@H](O)[C@@H](O)[C@H](O[C@@H]2[C@H]3OC(=O)CCCCCCCCCC(CCCCC)O[C@@H]4O[C@H](C)[C@@H](O)[C@H](O)[C@H]4O[C@@H]4O[C@H](CO)[C@@H](O)[C@H](O)[C@H]4O[C@H](O[C@H]2C)[C@@H]3OC(=O)C(C)CC)O[C@@H]1C (some centres undefined) [SCAMMONIN 1]			55.1%	Active	inactive		100%	
CCCCCC1CCCCCCCCCC(=O)O[C@@H]2[C@@H](O[C@@H]3O[C@H](C)[C@@H](O)[C@H](O)[C@H]3O)[C@H](C)O[C@@H](O[C@H]3[C@H](O[C@H]4[C@H](O1)O[C@H](C)[C@@H](O)[C@@H]4O)O[C@H](CO)[C@@H](O)[C@@H]3O)[C@@H]2OC(=O)C(C)CC (some centres undefined) [SCAMMONIN 2]					inactive		66%	
